Test results as given in patent US10759994B2, “Luminogenic transition metal-based pyridyl complex and its use” (City University of Hong Kong, priority 2016, dated 2020).

Tests used:
HeLa cells [1] = test: LSCM imaging of bioorthogonal labeling of BCN-C10 in HeLa cells; format: cell-based; conditions: for Subcellular structure stained / Staining pattern over time: BCN-C10-pretreated HeLa cells; for Intracellular emission with BCN-C10 pretreatment: HeLa cells, BCN-C10 200 μM 1 h, λex=488 nm; for Intracellular emission with BCN-C10 pretreatment / Staining pattern over time: complex 40 μM
Text: (“1 b”, “2b”, “3b”, “4b”, and “5b” indicate the complexes of the present invention; “—BCN-C10” means BCN-C10-untreated HeLa cells; “+BCN-C10” means BCN-C10-pretreated HeLa cells).
(“2b” and “5b” indicate the complexes of the present invention; “—BCN-C10” means BCN-C10-untreated HeLa cells; “+BCN-C10” means BCN-C10-pretreated HeLa cells).
The bioorthogonal labeling properties of complexes 1a-5b were investigated using CHO-K1 or HeLa cells with or without pretreatment of an exogenous molecule BCN-010, i.e., a BCN-modified decane molecule. The intracellular distribution of BCN-C10 was then imaged using laser scanning confocal microscopy (LSCM).
In the study of the ruthenium(II) nitrone complexes, live HeLa cells were treated with BCN-C10 (200 μM) for 1 h, thoroughly washed with PBS, then incubated with complexes 1b-5b (40 μM) for 12 h, and finally imaged by LSCM. More specifically, HeLa cells were incubated in growth medium/DMSO (99:1, v/v) containing BCN-C10 (200 μM) in the dark at 37° C. under a 5% CO2 atmosphere for 1 h. After treatment, the medium was removed, the cells were washed thoroughly with PBS (1 mL×3), and then incubated in growth medium/DMSO (99:1, v/v) containing the ruthenium(II) complex (40 μM) in the dark at 37° C. under a 5% CO2 atmosphere. After incubation for 3, 6, 12, or 24 h, the culture medium was removed and the cell was were washed with PBS (1 mL×3). The coverslip was mounted onto a sterilized glass slide and then imaging was performed using a Leica TCS SPE confocal microscope with an oil immersion 63× objective len and an excitation wavelength at 488 nm. […] Additionally, BCN-C10-pretreated cells were incubated with complexes 2b and 5b for different time periods (3, 6, 12, and 24 h) (FIG. 6). […] The regioselective staining is assumed to be closely related to the subcellular distribution of BCN-C10, and the lipophilicity and reactivity of the complexes.

[2] = Photophysical data (emission wavelength, lifetime, quantum yield); format: physicochemical
Procedure: Electronic absorption spectra were recorded on an Agilent 8453 diode array spectrophotometer. Steady-state emission spectra were recorded on a HORIBA JOBIN YVON Fluorolog TCSPC spectrofluorometer. Unless specified otherwise, all solutions for photophysical studies were degassed with no fewer than four successive freeze-pump-thaw cycles and stored in a 10-cm^3 round bottomed flask equipped with a side-arm 1-cm fluorescence cuvette and sealed from the atmosphere by a Rotaflo HP6/6 quick-release Teflon stopper. Luminescence quantum yields were measured by the optically dilute method (Demas, J. N. and Crosby, G. A., J. Phys. Chem. 1971, 75, 991) using an aerated aqueous solution of [Ru(bpy)3]Cl2 (ϕem=0.028, λex=455 nm) as the standard solution (Wallace, L. and Rillema, D. P., Inorg. Chem., 1993, 32, 3836). The concentrations of the standard and sample solutions were adjusted until the absorbance at 455 nm was 0.1. The emission lifetimes were measured on a HORIBA JOBIN YVON Fluorolog TCSPC spectrofluorometer in the Fast MCS lifetime mode with a NanoLED N-375 as the excitation source.
The very low emission quantum yield of complexes 1a-5b compared with other related iridium(III) and ruthenium(II) systems are expected to be due to quenching by the nitrone moiety.
In particular, the emission quantum yields of the iridium(III) complexes 1a, 2a and 3a (ϕem<0.021; Table 1) were much lower than those of common cyclometalated iridium(Ill) polypyridyl complexes (Li, S. P.-Y. et al., Chem. Eur. J. 2010, 16, 8329; Li, S. P.-Y. et al., Biomaterials 2013, 34, 7519; Lo, K. K.-W. et al., Chem. Commun. 2013, 49, 4271) which is expected to be a consequence of efficient quenching associated with isomerization of the C═N group.

HeLa cells [3] = test: Cellular uptake by ICP-MS in HeLa cells; format: cell-based; conditions: complex 40 μM, 12 h; for Amount of ruthenium associated with an average HeLa cell: 37° C., ICP-MS, untreated cells; for Uptake by BCN-C10-pretreated cells relative to untreated cells: HeLa cells, BCN-C10 pretreatment
Procedure: The cellular uptake of complexes 1a-5b was examined by ICP-MS. […] This finding should originate from intracellular esterases that convert the ester moieties of complex 3a into negatively charged carboxyl groups, enhancing its intracellular retention. […] Upon incubation of the untreated cells with the complexes, the amounts of ruthenium taken up by an average cell followed the order: 1 b<3b<5b<2b<4b, which seems to be in accordance with their lipophilic character. […] These findings indicate that the accumulation of the complexes 1 b-5b in BCN-C10-pretreated cells is not only associated with their lipophilicity, but also strongly affected by the bioorthogonal labeling of BCN-C10.
More specifically, for determining the cellular uptake of complexes 1a-3a, CHO-K1 cells were incubated in growth medium/DMSO (99:1, v/v) containing the iridium(III) complex (5 μM) in the dark at 37° C. under a 5% CO2 atmosphere for 1 h. The medium was removed, and the cell layer was thoroughly washed with PBS (1 mL×3). The cells were trypsinized by trypsin-EDTA (500 μL) and harvested with PBS. The resultant solution (2 mL) was heated with 65% HNO3 (2 mL) at 70° C. for 2 h, cooled to room temperature, and analyzed using an Elan 6100 DCR-ICP-MS (PerkinElmer SCIEX Instruments). For determining the cellular uptake of complexes 1 b 5b, HeLa cells with or without pretreatment of BCN-C10 were incubated in growth medium/DMSO (99:1, v/v) containing the ruthenium(II) complexes (40 μM) in the dark at 37° C. under a 5% CO2 atmosphere. After incubation for 12 h, the medium was removed and the cells were thoroughly washed with PBS (1 mL×3). The cells were typsinized by trypsin-EDTA (500 μL) and harvested with PBS. The resultant solution (1.5 mL) was heated with 65% HNO3 (1 mL) at 60° C. for 2 h, cooled to room temperature, and analyzed using an Elan 6100 DCR-ICP-MS.

[4] = Emission enhancement upon reaction with BCN—OH; format: physicochemical; conditions: complex 10 μM, BCN—OH 1 mM, aerated MeOH, 298 K
Text: The strained alkyne BCN—OH has been selected as a model substrate. […] Namely, these findings confirm that complexes 1a-5b remained non-emissive or weakly emissive as long as the nitrone moiety is intact and resume their strongly emissive behavior upon cycloaddition reaction with strained alkynes.

BCN-BSA = target: T1, BCN-BSA (Bos taurus, UniProt P02769); test: Emission enhancement upon reaction with BCN-BSA; format: biochemical, Bovine; conditions: complex 10 μM, protein 3.78 μM, aerated potassium phosphate buffer (50 mM, pH 7.4)/DMSO (99:1, v/v), 298 K
T1 construct: purchased Calbiochem
T1 sequence (P02769 25-607): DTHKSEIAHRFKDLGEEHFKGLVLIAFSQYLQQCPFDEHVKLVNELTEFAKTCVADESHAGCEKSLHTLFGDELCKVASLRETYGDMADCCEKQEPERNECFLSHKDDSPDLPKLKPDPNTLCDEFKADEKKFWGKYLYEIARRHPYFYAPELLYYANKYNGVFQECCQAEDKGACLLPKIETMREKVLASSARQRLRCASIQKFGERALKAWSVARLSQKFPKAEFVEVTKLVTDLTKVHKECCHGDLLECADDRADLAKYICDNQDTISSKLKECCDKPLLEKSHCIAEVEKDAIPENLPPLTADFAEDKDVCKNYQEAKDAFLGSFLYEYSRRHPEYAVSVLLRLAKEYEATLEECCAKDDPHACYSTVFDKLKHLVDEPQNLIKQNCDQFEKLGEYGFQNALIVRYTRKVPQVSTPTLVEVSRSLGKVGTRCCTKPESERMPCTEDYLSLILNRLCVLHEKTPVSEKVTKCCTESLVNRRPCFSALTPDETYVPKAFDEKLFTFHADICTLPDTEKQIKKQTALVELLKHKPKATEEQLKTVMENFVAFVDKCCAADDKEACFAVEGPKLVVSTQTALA

[5] = Potassium phosphate buffer (50 mM, pH 7.4)/DMSO (9:1, v/v), 298 K
[6] = Potassium phosphate buffer (50 mM, pH 7.4)/MeOH (4:1, v/v), 298 K

SMILES	Subcellular structure stained (HeLa cells [1])	Intracellular emission with BCN-C10 pretreatment (HeLa cells [1]; 12 h)	Φem ([2]; CH2Cl2, 298 K)	τo ([2]; CH2Cl2, 298 K) [μs]	Φem ([2]; MeOH, 298 K)	λem ([2]; MeOH, 298 K) [nm]	τo ([2]; MeOH, 298 K) [μs]	Φem [2, 5]	λem [2, 5] [nm]	τo [2, 5] [μs]	Amount of ruthenium associated with an average HeLa cell (HeLa cells [3]) [fmol]	Emission enhancement factors (I/Io) [4]	I/Io BCN-BSA (BCN-BSA)	Staining pattern over time (HeLa cells [1]; 6 h)	Staining pattern over time (HeLa cells [1]; 12 h)	Staining pattern over time (HeLa cells [1]; 24 h)	Uptake by BCN-C10-pretreated cells relative to untreated cells (HeLa cells [3]) [fold]	Φem [2, 6]	λem [2, 6] [nm]	τo [2, 6] [μs]
Cc1ccnc(-c2cc(/C=[N+](/C)[O-])ccn2)c1.F[P-](F)(F)(F)(F)F.F[P-](F)(F)(F)(F)F.[Ru+2].c1ccc(-c2ccccn2)nc1.c1ccc(-c2ccccn2)nc1 [Complex 1b]	punctate cell surface staining	weak but enhanced emission	0.006	1.20	0.006	609	0.94	0.004	611	0.64	0.31 ± 0.01	9.5	10.7	–	–	–	–	–	–	–
CCCCNC(=O)c1ccnc(-c2cc(C(=O)NCCCC)ccn2)c1.CCCCNC(=O)c1ccnc(-c2cc(C(=O)NCCCC)ccn2)c1.Cc1ccnc(-c2cc(/C=[N+](/C)[O-])ccn2)c1.F[P-](F)(F)(F)(F)F.F[P-](F)(F)(F)(F)F.[Ru+2] [Complex 2b]	cell membrane staining	intense subcellular staining	0.013	1.68	0.006	647	0.98	0.003	650	0.52	1.32 ± 0.08	7.1	16.9	selectively lighted up the cell surface	intense cell membrane staining plus some sharp vesicles in the cytoplasmic regions adjacent to cell membrane	intense granular staining in the cytoplasm	8.89	–	–	–
Cc1ccnc(-c2cc(/C=[N+](\[O-])c3ccccc3)ccn2)c1.F[P-](F)(F)(F)(F)F.F[P-](F)(F)(F)(F)F.[Ru+2].c1ccc(-c2ccccn2)nc1.c1ccc(-c2ccccn2)nc1 [Complex 5b]	cell membrane staining	intense subcellular staining	–	–	0.015	608	0.63	–	–	–	1.09 ± 0.03	3.9	9.6	selectively lighted up the cell surface	intense cell membrane staining plus some sharp vesicles in the cytoplasmic regions adjacent to cell membrane	intense granular staining in the cytoplasm	2.48	0.006	610	0.69
